Key:
VEGFR2 = assay: Western Blotting, VEGFR2 level; format: cell-based; settings: human liver cancer cells, Lewis lung cancer cells and other cancer cell lines and tumor tissues, read-out: Effective concentration (IC50) for inhibition of VEGFR2
Text: (§1) Antibodies: primary antibodies of VEGFR, EGFR, c-Met, K-Ras, H-Ras, Akt, NF-κB, Cyclin D1, ER-alpha, Dvl-1, Dvl-2, Dvl-3, MMP-9, MMP2, β-catenin, Bcl-2, Bax, p53, p21, E-cadherin and Caspase3 protein, purchased from American Cell Signaling Technology Company and Santa Cruz Technology Company; and H3 acetylation, H4 acetylation and HDAC (HDAC3, HDAC4 and the like) Antibody Sample Kits, purchased from Cell Signaling Technology Company of the U.S.
(§2) (3) polyacrylamide gel electrophoresis (SDS-PAGE): an equal amount of protein lysate sample was used to separate protein, film transfer, and blocking, treated with appropriate primary antibodies and secondary antibodies in sequence, and the film was washed, then the color was developed with ECL kit, and a blot protein band was detected by exposure of an X-ray film; and a Gel-Pro Analyzer was used for quantitative analysis of gray degree, optical density value of the control group and the drug treatment group in various concentration were respectively compared with that of internal reference, the obtained ratios were respectively compared with the control group, and the protein expression level was semi-quantified.

[1] = test system: human liver cancer cells HepG2; assay: MTT growth inhibition, HepG2 cells; format: cell-based; settings: 72 h after treatment, read-out: Drug concentration (IC50) at which 50% cancer cells survived
Text: (§3) Cell lines and cell culture: human lung cancer cells A549 and H460, human breast cancer cells MCF-7 and MDA-MB-231, human gastric cancer cells BGC-823, human prostate cancer cells PC-3, human chronic leukemia cells K562, human lymphoma cells U937, human liver cancer cells SMMC7721 and HepG2, human colon cancer cells HT29, human pancreatic cancer cells PANC-1 and BxPC3, human cervical cancer Hela cell lines, human brain tumor cells Daoy, human neuroma cells D54 and human oral epidermoid cancer cells KBV200 line with strong drug resistance, mouse melanoma cells B16, and highly metastatic Lewis lung cancer cell lines were purchased from American Type Culture Collection of the U.S. These cells were cultured with DMEM and RPMI-1640 culture solutions separately.
(§4) The procedure was as follows:
(§5) (1) 0.25% trypsin was used to digest cancer cells in a logarithmic growth phase to prepare a single-cell suspension, the concentration of cells was adjusted to 5×10^4/mL, and the adjusted suspension was inoculated into a 96-well culture plate with 100 μl per well;
(§6) (2) The culture plate was transferred into a 37° C. incubator with a saturated humidity and 5% of CO2 and cultured for 24 h; the compounds and the intermediates thereof obtained in embodiments 1-7 and the compound as represented by formula (IIIa) or the positive control anti-cancer drug with the concentration of 1-1000 μM/L were added to enable the final concentration to be 0.1-1500 μM/L. Control wells (only added with 200 μl of cell suspension) and drug-free blank control wells (containing the solvent of 0.01% DMSO) were set, each group included 8 wells, and the plate was placed into the 37° C. incubator with saturated humidity and 5% of CO2 for culturing;
(§7) (3) The 96-well plate was taken out at 48 h and 72 h after dosing, the original culture medium was carefully removed by suction, 100 μl of serum-free DMEM culture medium and 10 μl of MTT (5 mg/mL) solution were added in each well. The plate was continuously cultured for another 4 h and then the culture was terminated;
(§8) (4) The supernatant in the wells was carefully removed by suction, each well was added with 150 μl of DMSO and shaked at room temperature for 10-15 min to fully dissolve crystals.
(§9) (5) Colorimetric analysis: the wavelength was selected as 570 nm, the light absorbance (A value) of each well was determined on the microplate reader and the results were recorded; the experiment was repeated for three times;
(§10) (6) the experimental results were calculated according to the following formula: relative survival rate=(A value of each experimental group/A value of cell control group)×100%
(§11) Calculation of median-effect concentration (IC50, namely the drug concentration at which the inhibition rate is 50%, also known as half inhibitory concentration):
(§12) IC50 of the detected component was calculated by using a regression equation.

c-Met = assay: Western Blotting, c-Met level; format: cell-based; settings: human liver cancer cells, Lewis lung cancer cells and other cancer cell lines and tumor tissues, read-out: Effective concentration (IC50) for inhibition of c-Met
Text: as §1, §2

[2] = test system: human lung cancer cells H460; assay: MTT growth inhibition, H460 cells; format: cell-based; settings: NCI-H460, 72 h after treatment, read-out: Drug concentration (IC50) at which 50% cancer cells survived
Text: as §3, §4, §5, §6, §7, §8, §9, §10, §11, §12

H-Ras = assay: Western Blotting, H-Ras level; format: cell-based; settings: human liver cancer cells, Lewis lung cancer cells and other cancer cell lines and tumor tissues, read-out: Effective concentration (IC50) for inhibition of H-Ras
Text: as §1, §2

HDAC4 = HDAC4 enzyme activity in nuclear extracts of human tumor xenografts of treated mice; settings: second value of the pair HDAC3 and HDAC4, SAHA 25 mg/kg
Method: For the detection of the effect of the drugs on enzyme activity of EZH2 and HDAC of in-vivo tumors, the tumors were separately excised after 6 h of medication, total proteins and nucleoproteins were extracted separately to detect and analyze the activity of the enzyme.
(2) 50 μl of diluted sample solution was added into each reaction well, the plate was sealed with a plate-sealing film and reacted at room temperature for 30 min;
(3) the plate-sealing film was carefully peeled off, the liquid was removed, dried, 150 μl of washing liquid was added into each well, stood for 30 s, then the liquid was removed, repeated twice, and dried;
(4) 2 μl of HDAC enzyme or tumor tissue nuclear extracts was respectively uniformly mixed with 28 μl of diluted sample solution, added into the wells, the plate was sealed with the plate-sealing film and reacted at 37° C. for 60 min;
(5) the plate was washed for three times, wherein the operation was the same as that in (3); and a diluted antibody capture working solution was added into each reaction well according to 50 μl/well and reacted on a shaking bed at room temperature for 60 min;
(6) the plate was washed for four times, wherein the operation was the same as that in (3);
(7) a diluted antibody detection working solution was added into each reaction well according to 50 μl/well and reacted at room temperature for 30 min;
(8) the plate was washed for five times, wherein the operation was the same as that in (3);
a color developing agent was added according to 100 μl/well, and performed dark development for 2-10 min;
(9) 50 μl of stop solution was added into each well for stopping the reaction when the color in the well with a standard product turned blue with medium intensity, the color immediately turned yellow from blue after the addition;
(10) the light absorbance (OD value) of each well was measured in sequence at the wavelength of 450 nm; wherein the measurement should be performed within 15 min after addition of the stop solution; and

[3] = test system: Lewis lung cancer (highly metastatic mouse lung cancer) cells; assay: Mouse Lewis lung cancer metastasis model; format: in vivo, C57/BL6J black mice; settings: Lewis lung carcinoma, ip, LLC, vs DMSO solvent control, read-out: tumor lung metastasis inhibition rate % of mouse Lewis lung cancer; for inhibition in vivo at 60 mg/kg: 60 mg/kg intraperitoneal once a day; for inhibition in vivo at 90 mg/kg: 90 mg/kg intraperitoneal once a day
Method: (§13) RPMI1640 and DMEM culture solutions: Hyclone Company; inactivated fetal bovine serum: Hyclone Company, preserved at −20° C.; trypsin: Amersco Company; and 0.4% trypan blue: Sigma Company;
(§14) (4) sacrifice of animals: the mice were anesthetized and photoed after treatment experiments; the nude mice were sacrificed by breaking neck, the tumor tissues were stripped under sterile conditions and the weight of the tumors was weighed; and the effects of the drugs on pathology and toxicity of the various organs and tissues were detected.

[4] = test system: human breast cancer cells MCF-7 xenograft; assay: In-vivo growth of MCF-7 xenografts in nude mice; parameters: species or system BALB/c nude mice; settings: Mus musculus, MCF7, ip, vs DMSO solvent control, read-out: Curative effect (inhibition rate %) of tumor weight; for inhibition in vivo at 60 mg/kg: 60 mg/kg intraperitoneal once a day; for inhibition in vivo at 90 mg/kg: 90 mg/kg intraperitoneal once a day
Method: as §13
(3) Observation of growth of tumors in nude mice: the activities (including food intake, traits of urine and stool, mental state and the like) of the nude mice and the tumor growth time and growth situation of the transplanted tumors were observed every day, the body weight and the size of the tumors were measured once every 2-3 days. The long diameter a and the short diameter b (mm) of each tumor were measured by a vernier caliper to calculate the volume, wherein the volume V=π1/2·ab^2 (mm^3);
as §14

[5] = test system: human pancreatic cancer cells PANC-1; assay: MTT growth inhibition, PANC-1 cells; format: cell-based; settings: 72 h after treatment, read-out: Drug concentration (IC50) at which 50% cancer cells survived
Text: as §3, §4, §5, §6, §7, §8, §9, §10, §11, §12

K-Ras = assay: Western Blotting, K-Ras level; format: cell-based; settings: human liver cancer cells, Lewis lung cancer cells and other cancer cell lines and tumor tissues, read-out: Effective concentration (IC50) for inhibition of K-Ras
Text: as §1, §2

Bcl-2/Bax = assay: Western Blotting, Bcl-2/Bax level; format: cell-based; settings: human liver cancer cells, Lewis lung cancer cells and other cancer cell lines and tumor tissues, read-out: Effective concentration (IC50) for inhibition of Bcl-2/Bax
Text: as §1, §2

| SMILES | IC50 (VEGFR2) | IC50 [1] | IC50 (c-Met) | IC50 [2] | IC50 (H-Ras) | decrease of HDAC4 enzyme activity/inhibition rate (HDAC4; A549 tumor grown in vivo) | decrease of HDAC4 enzyme activity/inhibition rate (HDAC4; MCF7 tumor grown in vivo) | decrease of HDAC4 enzyme activity/inhibition rate (HDAC4; MDA-MB231 tumor grown in vivo) | decrease of HDAC4 enzyme activity/inhibition rate (HDAC4; SMMC7721 tumor grown in vivo) | inhibition in vivo at 60 mg/kg [3] | inhibition in vivo at 90 mg/kg [3] | inhibition in vivo at 60 mg/kg [4] | inhibition in vivo at 90 mg/kg [4] | IC50 [5] | IC50 (K-Ras) | IC50 (Bcl-2/Bax) |
| --- | --- | --- | --- | --- | --- | --- | --- | --- | --- | --- | --- | --- | --- | --- | --- | --- |
| CCNC(=O)CC[C@@H](NC(=O)c1cc2cc(Br)ccc2oc1=O)C(=O)OCC [Compound Id, (R)-2-(6-Br-2-oxo-2H-benzopyran-3-carboxamido)-5-ethylamino-5-oxo-pentanoic acid ethyl ester] | < 100 µM | 125 µM | < 150 µM | 101 µM | < 60 µM | 73%*(A549)- | 63%*(MCF7) | 65%*(MDA-MB231) | 67%*(SMMC7721); | 69.2% | 82.5% | 56.6% | 66.9% | 55 µM | < 60 µM | < 100 µM |
| CCNC(=O)CC[C@H](N)C(=O)OC [Compound IIa, theanine methyl ester] |  | 600 µM |  | 500 ± 40 µM |  |  |  |  |  | 36.8% | 38.5% | 39.8% | 41.3% | 280 µM |  |  |
| CCNC(=O)CC[C@@H](NC(=O)c1cc2cc(Cl)ccc2oc1=O)C(=O)OCC [Compound Ic, (R)-2-(6-CI-2-oxo-2H-benzopyran-3-carboxamido)-5-ethylamino-5-oxo-pentanoic acid ethyl ester] | < 100 µM | 93 µM |  | 106 ± 50 µM | < 65 µM | 73%*(A549)- | 63%*(MCF7) | 65%*(MDA-MB231) | 67%*(SMMC-7721); | 74.2% | 79.2% | 58.6% | 68.8% | 54 µM | < 65 µM | < 100 µM |
| CCNC(=O)CC[C@@H](NC(=O)c1cc2cc(Cl)cc(Cl)c2oc1=O)C(=O)OCC [Compound Ig, (R)-2-(6,8-dichloro-2-oxo-2H-benzopyran-3-carboxamido)-5-ethylamino-5-oxo-pentanoic ethyl ester] | < 100 µM | 46 µM | < 150 µM | 93 µM | < 65 µM | 63%*(A549)- | 68%*(MCF7) | 66%*(MDA-MB231) | 64%*(SMMC7721); | 75.5% | 79.9% | 65.7% | 76.9% | 71 µM | < 65 µM | < 70 µM |
| CCNC(=O)CCC(NC(=O)c1cc2cc([N+](=O)[O-])ccc2oc1=O)C(=O)OCC (stereo in doubt) [Compound If, (R)-2-(6-nitro-2-oxo-2H-benzopyran-3-carboxamido)-5-ethylamino-5-oxo-pentanoic acid ethyl ester] | < 90 µM | 130 µM | < 141 µM | 100 µM | < 55 µM | 75%*(A549)- | 69%*(MCF7) | 67%*(MDA-MB231) | 68%*(SMMC7721); | 67.5% | 75.8% | 68.6% | 72.6% | 77 µM | < 55 µM | < 90 µM |
| CCNC(=O)CCC(NC(=O)c1cc2ccccc2oc1=O)C(=O)OCC (stereo not shown) [Compound Ib, ethyl 5-ethylamino-5-oxo-2-(2-oxo-2H-benzopyran-3-carboxamido)pentanoate] | < 120 µM | 225 µM | < 155 µM | 113 µM | < 75 µM | 62%*(A549)- |  |  | 61%*(SMMC-7721) | 58.2% | 69.6% | 52.6% | 63.8% | 65 µM | < 75 µM | < 120 µM |
| CCNC(=O)CC[C@H](N)C(=O)OCC [Compound IIb, theanine ethyl ester] |  | 300 µM |  | 400 ± 10 µM |  |  |  |  |  | 52.3% | 54.7% | 43.2% | 46.8% | 400 µM |  |  |

Reference: US9518038B2, “Condensation product of theanine derivative and carboxylic acid coumarin derivative, its intermediate, preparation method and use thereof” (SHANDONG YINGDONG YINGHAO BIOTECHNOLOGY, INC., priority 2012, dated 2016)
